Results: ChEMBL document CHEMBL2016464, “Identification of Inhibitors of NOD1-Induced Nuclear Factor-κB Activation” (ACS Med Chem Lett, 2011)
pIC50: −log10 of the molar value. ≈ marks a conversion by molar mass, not a printed value.

Target: Nucleotide-binding oligomerization domain-containing protein 2 (Homo sapiens, UniProt Q9HC29)
Sequence (Q9HC29 whole entry, the tested form may be a part): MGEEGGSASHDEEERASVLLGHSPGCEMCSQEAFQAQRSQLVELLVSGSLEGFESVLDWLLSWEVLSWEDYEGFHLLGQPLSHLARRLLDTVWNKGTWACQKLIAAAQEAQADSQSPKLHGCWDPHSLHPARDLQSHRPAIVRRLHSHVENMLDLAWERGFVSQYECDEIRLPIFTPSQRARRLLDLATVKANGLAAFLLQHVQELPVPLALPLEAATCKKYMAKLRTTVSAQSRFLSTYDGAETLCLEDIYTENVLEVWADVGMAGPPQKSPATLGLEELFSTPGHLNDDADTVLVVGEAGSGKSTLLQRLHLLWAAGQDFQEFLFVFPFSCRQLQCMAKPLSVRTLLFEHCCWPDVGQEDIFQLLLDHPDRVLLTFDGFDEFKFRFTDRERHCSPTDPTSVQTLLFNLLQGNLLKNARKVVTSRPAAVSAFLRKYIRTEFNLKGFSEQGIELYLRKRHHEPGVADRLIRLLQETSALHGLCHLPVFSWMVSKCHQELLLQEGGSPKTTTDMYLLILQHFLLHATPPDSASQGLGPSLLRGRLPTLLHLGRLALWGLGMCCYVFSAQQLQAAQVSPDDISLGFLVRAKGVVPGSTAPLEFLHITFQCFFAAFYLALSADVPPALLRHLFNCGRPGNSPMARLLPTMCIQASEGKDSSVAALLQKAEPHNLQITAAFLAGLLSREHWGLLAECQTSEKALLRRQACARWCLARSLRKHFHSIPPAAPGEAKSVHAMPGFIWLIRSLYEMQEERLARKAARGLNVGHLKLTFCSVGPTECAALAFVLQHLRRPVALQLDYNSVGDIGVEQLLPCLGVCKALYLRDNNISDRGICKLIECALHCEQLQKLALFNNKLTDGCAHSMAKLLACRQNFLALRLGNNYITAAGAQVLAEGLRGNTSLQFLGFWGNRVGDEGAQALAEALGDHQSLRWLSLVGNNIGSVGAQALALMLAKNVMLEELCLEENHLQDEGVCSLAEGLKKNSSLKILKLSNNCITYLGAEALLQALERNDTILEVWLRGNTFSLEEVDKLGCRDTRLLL
Experiment: not given
Conditions: not given
With `CCC(=O)N1c2ccc(S(=O)(=O)N3CCN(c4ccc([N+](=O)[O-])cc4)CC3)cc2CC1C` (racemic) the pIC50 was 5.81.

Tested on: not listed separately
Experiment: Solubility of the compound at pH 7.4
Format: physicochemical
Conditions: buffer
For `CC(=O)N1CCc2cc(S(=O)(=O)N3CCN(c4ccc(C#N)cc4)CC3)ccc21`, the solubility was 0.1 µg/mL (≈ 0.244 µM).
`O=C(C1CC1)N1CCc2cc(S(=O)(=O)N3CCN(c4ccc([N+](=O)[O-])cc4)CC3)ccc21` showed a solubility of 0.1 µg/mL (≈ 0.219 µM).
In the case of `CCC(=O)N1c2ccc(S(=O)(=O)N3CCN(c4ccc([N+](=O)[O-])cc4)CC3)cc2CC1C` (racemic), the solubility was 0.1 µg/mL (≈ 0.218 µM).

Tested on: not listed separately
Experiment: cells
Conditions: Homo sapiens, HEK-293T, 14 h
Description: Inhibition of TNFalpha-induced NFkappaB activation in HEK293T cells after 14 hrs by luciferase reporter gene assay
For `O=C(Nc1ccc(F)cc1)c1ccc(CN2CCCCC2)cc1`, the pIC50 was under 4.70.
Work on `O=C(Nc1ccc(F)cc1)c1ccc(CN2CCc3ccccc32)cc1` yielded a pIC50 of under 4.70.
Work on `CSc1ccc(NC(=O)c2ccc(CN3CCCCC3)cc2)cc1` yielded a pIC50 of under 4.70.
`CC(=O)N1CCc2cc(S(=O)(=O)N3CCN(c4ccc(C#N)cc4)CC3)ccc21` gave a pIC50 of 5.06.
Work on `Cc1ccc(S(=O)(=O)n2c(N)nc3cc(C)c(C)cc32)cc1` yielded a pIC50 of under 4.70.
With `CC(=O)N1CCc2cc(S(=O)(=O)N3CCN(c4ccc(Cl)cc4)CC3)ccc21` the pIC50 was under 4.70.
In the case of `Nc1nc2ccccc2n1Cc1ccc(Cl)cc1`, the pIC50 was under 4.70.
`CC(=O)c1ccc(N2CCN(S(=O)(=O)c3ccc4c(c3)CCN4C(=O)C3CC3)CC2)cc1` gave a pIC50 of under 4.70.
Compound `O=C(Nc1ccc(Br)cc1)c1ccc(CN2CCc3ccccc3C2)cc1` has a pIC50 of 5.82.
Work on `CC(=O)c1ccc(N2CCN(S(=O)(=O)c3ccc4c(c3)CCN4C(C)=O)CC2)cc1` yielded a pIC50 of under 4.70.
In the case of `Nc1nc2ccccc2n1S(=O)(=O)c1ccccc1`, the pIC50 was under 4.70.
With `CCOc1ccc(NC(=O)c2ccc(CN3CCCCC3)cc2)cc1` the pIC50 was under 4.70.
In the case of `CCC(=O)N1CCc2cc(S(=O)(=O)N3CCN(c4ccc(C#N)cc4)CC3)ccc21`, the pIC50 was under 4.70.
With `CN(C)c1ccc(NC(=O)c2ccc(CN3CCc4ccccc43)cc2)cc1` the pIC50 was under 4.70.
Compound `CN(C)c1ccc(NC(=O)c2ccc(CN3CCCCC3)cc2)cc1` has a pIC50 of under 4.70.
With `CC(=O)N1c2ccc(S(=O)(=O)N3CCN(c4ccc([N+](=O)[O-])cc4)CC3)cc2CC1C` (racemic) the pIC50 was 5.49.
With `Cc1ccc(S(=O)(=O)n2c(S)nc3ccc(C)cc32)cc1` the pIC50 was under 4.70.
With `O=C(C1CC1)N1CCc2cc(S(=O)(=O)N3CCN(c4ccc([N+](=O)[O-])cc4)CC3)ccc21` the pIC50 was under 4.70.
`CCC(=O)N1CCc2cc(S(=O)(=O)N3CCN(c4ccc([N+](=O)[O-])cc4)CC3)ccc21` gave a pIC50 of under 4.70.
Work on `CC(=O)N1CCc2cc(S(=O)(=O)N3CCN(c4ccc([N+](=O)[O-])cc4)CC3)ccc21` yielded a pIC50 of under 4.70.
`Nc1nc2ccccc2n1CCC(=O)c1ccc(Cl)cc1` showed a pIC50 of under 4.70.
Compound `CCC(=O)N1c2ccc(S(=O)(=O)N3CCN(c4ccc([N+](=O)[O-])cc4)CC3)cc2CC1C` (racemic) has a pIC50 of 5.31.
`N#Cc1ccc(N2CCN(S(=O)(=O)c3ccc4c(c3)CCN4C(=O)C3CC3)CC2)cc1` gave a pIC50 of under 4.70.

Tested on: HEK-293T
Experiment: Cytotoxicity against HEK293T cells at 20 uM by alamar blue assay
Format: cell-based
Conditions: human
With `O=C(Nc1ccc(F)cc1)c1ccc(CN2CCCCC2)cc1` the Activity was 0%.
For `O=C(Nc1ccc(F)cc1)c1ccc(CN2CCc3ccccc32)cc1`, the Activity was 0%.
`Cc1ccc(S(=O)(=O)n2c(C)nc3ccccc32)cc1` showed an Activity of 0%.
Work on `CSc1ccc(NC(=O)c2ccc(CN3CCCCC3)cc2)cc1` yielded an Activity of 0%.
In the case of `CC(=O)N1CCc2cc(S(=O)(=O)N3CCN(c4ccc(C#N)cc4)CC3)ccc21`, the Activity was 0%.
`Cc1ccc(S(=O)(=O)n2c(N)nc3cc(C)c(C)cc32)cc1` gave an Activity of 0%.
In the case of `Nc1nc2ccccc2n1C(=O)c1ccc(F)cc1`, the Activity was 0%.
With `COc1ccc(S(=O)(=O)n2c(N)nc3ccccc32)cc1` the Activity was 0%.
For `CC(=O)N1CCc2cc(S(=O)(=O)N3CCN(c4ccc(Cl)cc4)CC3)ccc21`, the Activity was 0%.
`Nc1nc2ccccc2n1Cc1ccc(Cl)cc1` showed an Activity of 0%.
Work on `CC(=O)c1ccc(N2CCN(S(=O)(=O)c3ccc4c(c3)CCN4C(=O)C3CC3)CC2)cc1` yielded an Activity of 0%.
For `O=C(Nc1ccc(Br)cc1)c1ccc(CN2CCc3ccccc3C2)cc1`, the Activity was 0%.
For `Nc1nc2ccccc2n1C(=O)c1ccc(Cl)cc1Cl`, the Activity was 0%.
Work on `CC(=O)c1ccc(N2CCN(S(=O)(=O)c3ccc4c(c3)CCN4C(C)=O)CC2)cc1` yielded an Activity of 0%.
For `Nc1nc2ccccc2n1S(=O)(=O)c1ccccc1`, the Activity was 0%.
With `CCOc1ccc(NC(=O)c2ccc(CN3CCCCC3)cc2)cc1` the Activity was 0%.
With `CCC(=O)N1CCc2cc(S(=O)(=O)N3CCN(c4ccc(C#N)cc4)CC3)ccc21` the Activity was 0%.
Work on `CN(C)c1ccc(NC(=O)c2ccc(CN3CCc4ccccc43)cc2)cc1` yielded an Activity of 0%.
For `Nc1nc2ccccc2n1S(=O)(=O)c1ccc(Cl)cc1`, the Activity was 0%.
Work on `CN(C)c1ccc(NC(=O)c2ccc(CN3CCCCC3)cc2)cc1` yielded an Activity of 0%.
`CC(=O)N1c2ccc(S(=O)(=O)N3CCN(c4ccc([N+](=O)[O-])cc4)CC3)cc2CC1C` (racemic) showed an Activity of 0%.
With `Cc1ccc(S(=O)(=O)n2c(S)nc3ccc(C)cc32)cc1` the Activity was 0%.
Compound `Nc1nc2ccccc2n1S(=O)(=O)c1ccc([N+](=O)[O-])cc1` has an Activity of 0%.
For `O=C(C1CC1)N1CCc2cc(S(=O)(=O)N3CCN(c4ccc([N+](=O)[O-])cc4)CC3)ccc21`, the Activity was 0%.
`CCC(=O)N1CCc2cc(S(=O)(=O)N3CCN(c4ccc([N+](=O)[O-])cc4)CC3)ccc21` gave an Activity of 0%.
`CC(=O)N1CCc2cc(S(=O)(=O)N3CCN(c4ccc([N+](=O)[O-])cc4)CC3)ccc21` showed an Activity of 0%.
For `Nc1nc2ccccc2n1CCC(=O)c1ccc(Cl)cc1`, the Activity was 0%.
Work on `CCC(=O)N1c2ccc(S(=O)(=O)N3CCN(c4ccc([N+](=O)[O-])cc4)CC3)cc2CC1C` (racemic) yielded an Activity of 0%.
For `N#Cc1ccc(N2CCN(S(=O)(=O)c3ccc4c(c3)CCN4C(=O)C3CC3)CC2)cc1`, the Activity was 0%.
